Consider one compound from paper PMC6100113, “Involvement of CYP4F2 in the Metabolism of a Novel Monophosphate Ester Prodrug of Gemcitabine and Its Interaction Potential In Vitro” (Molecules : A Journal of Synthetic Chemistry and Natural …, 2018).

Structures are written as SMILES.

One data set deals with T1, CYP4F2 (Homo sapiens, UniProt P78329).
T1 construct: purchased Corning Gentest
T1 sequence (P78329 5-520): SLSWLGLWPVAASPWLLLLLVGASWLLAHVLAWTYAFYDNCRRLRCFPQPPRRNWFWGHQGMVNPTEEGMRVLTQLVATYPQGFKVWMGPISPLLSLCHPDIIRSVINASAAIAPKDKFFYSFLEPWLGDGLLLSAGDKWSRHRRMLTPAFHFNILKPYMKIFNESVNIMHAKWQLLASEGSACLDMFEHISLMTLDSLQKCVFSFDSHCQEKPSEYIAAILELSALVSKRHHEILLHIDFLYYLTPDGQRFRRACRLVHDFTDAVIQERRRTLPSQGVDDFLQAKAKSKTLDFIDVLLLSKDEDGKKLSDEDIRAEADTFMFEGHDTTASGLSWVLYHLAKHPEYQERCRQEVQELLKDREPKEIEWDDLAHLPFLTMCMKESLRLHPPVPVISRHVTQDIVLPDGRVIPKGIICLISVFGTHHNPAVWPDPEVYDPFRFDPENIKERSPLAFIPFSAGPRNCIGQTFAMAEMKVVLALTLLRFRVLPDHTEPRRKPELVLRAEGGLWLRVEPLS
In words: Formation kinetics of M4 (carboxylic acid) from Compound-3 by CYP4F2. The following applies: CYP4F2 10 nM, 10 min, uncompetitive substrate inhibition equation, estimated. It counts as in vitro ADME. As for the experimental part: To investigate the formation kinetics of carboxylic acid metabolite (M4) from Compound-3, varying concentrations of Compound-3 (0–10 µM) were incubated with 10 nM CYP4F2 and 1 mM NADPH in 100 mM phosphate buffer (pH 7.4). The reactions were carried at 37 °C for 10 min and terminated with the addition of ice-cold acetonitrile containing the internal standard. Samples were then centrifuged, and aliquots of 10 μL of the supernatants were analyzed by LC-MS/MS for M4 levels.
Kinetic parameters of Compound-3 in recombinant human CYP4F2 were calculated using Enzyme Kinetics Modules of SigmaPlot (Version 14.0, Systat Software, San Jose, CA, USA). An uncompetitive substrate inhibition equation was also used:V = (Vmax × [S])/{Km + [S] × (1 + [S]/Ki)}(2) where Ki is the disassociation constant describing the inhibitor-enzyme interaction.

The test system of data set [1] is CYP1A2, CYP2B6, CYP2C8, CYP2C9, CYP2C19, CYP2D6, CYP4A11 and CYP4F3. The data set is described as follows: Reaction phenotyping with the rest of the recombinant CYP isozymes. The data set is classed as in vitro ADME, human. The note with it: 50 nM, 1 μM, NADPH. As for the experimental part:
Compound-3 was incubated separately with human cDNA-expressed cytochrome P450s (CYP1A2, CYP2B6, CYP2C8, CYP2C9, CYP2C19, CYP2D6, CYP3A4, CYP4A11, CYP4F2 and CYP4F3). The incubation mixtures contained individual CYP isoenzymes (50 nM), potassium phosphate buffer (100 mM, pH 7.4), NADPH (1 mM), and Compound-3 (1 µM). The final volume of the incubation mixture was 50 µL. Before the start of the incubation, reaction mixtures were warmed up at 37 °C for 10 min. The reaction was initiated with the addition of NADPH and the incubations were performed at 37 °C in a water bath. After 60 min of incubation, the reactions were terminated with an equal volume of ice-cold acetonitrile containing the internal standard. Control samples without NADPH but substrates were included. The samples were then centrifuged and aliquots of 10 μL of the supernatants were transferred onto LC-MS/MS for the analysis of Compound-3 and M4 (carboxylic acid) levels.

Data set [2] in a line: Metabolic stability in rat liver microsomes. It counts as in vitro ADME. The following applies: rat liver microsomes 0.2 mg/mL, with NADPH, 1 μM, 37 °C. As for the experimental part: (§1) Stability of Compound-3 was first investigated in microsomal systems from human and rat. The microsomal protein and Compound-3 concentrations were optimized to 0.2 mg/mL and 1 µM, respectively. Before the start of the incubation, reaction mixtures containing phosphate buffer (100 mM, pH 7.4), microsomes and Compound-3 in a total volume of 50 µL were warmed up at 37 °C for 10 min. The reaction was started with the addition of NADPH at a final concentration of 1 mM. Incubations were terminated at a specified time with the addition of 100 µL ice-cold acetonitrile containing the internal standard. The samples were then centrifuged, and aliquots of 10 µL of the supernatants were transferred into liquid chromatography-tandem mass spectrometry (LC-MS/MS) for the analysis of Compound-3 levels.

A short description of data set [3]: Metabolic stability in rat intestinal microsomes. It counts as in vitro ADME. The note with it: rat intestinal microsomes 0.2 mg/mL, with NADPH, 1 μM, 37 °C. As for the experimental part:
as §1

A short description of data set [4]: Metabolite identification by UPLC/Triple TOF MS in rat liver microsomes. The following applies: Compound-3 10 μM, 1 mg/mL microsomes, NADPH, 60 min, HRMS. More on the design: key: √: metabolites were detected by high-resolution mass spectrometry. It counts as in vitro ADME. As for the experimental part:
(§2) For metabolite identification, a higher concentration of Compound-3 (10 μM) was incubated with liver microsomes (1 mg/mL) in the presence of NADPH (1 mM) and primary human hepatocytes at a density of 1 × 10^6 cell/mL. Samples were collected at 0 min and 60 min with the addition of ice-cold acetonitrile. After vortexing and centrifugation, the supernatant was transferred into a new tube and evaporated to dryness. The samples were then reconstituted in 100 μL of water and methanol (v/v, 9:1). An aliquot of 10 μL of reconstituted solution was injected into UPLC/Triple TOF 5600^+ MS for metabolite identification.
(§3) Identification of Compound-3 metabolites was carried out using Acquity UPLC/Triple TOF 5600^+ system. Chromatographic separation for Compound-3 and its metabolites were achieved by an Acquity UPLC HSS T3 column (100 × 2.1 mm i.d., […]; Waters Corp.) maintained at 40 °C. The mobile phase was a mixture of 0.02% formic acid in 5 mM ammonium acetate (A) and methanol (B). The gradient elution was started from 2% B and maintained for 4 min, then increased linearly to 75% B over the next 4 min and maintained for 8 min. […] The flow rate was 0.4 mL/min and the eluent was monitored by UV detection at 280 nm.
(§4) For mass detection, a Triple TOF 5600^+ mass spectrometer (AB Sciex, Framingham, MA, USA) was operated in positive ion electrospray (ES-positive) mode with the source temperature at 500 °C and scan range from m/z 100 to 1000 Da. Other parameters were set as follows: ion spray voltage, 5500 V; decluttering potential, 80 V; curtain gas, 40 psi; ion source gas 1, 55 psi; and ion source gas 2, 50 psi. Collision energies of 25 and 65 eV were used for TOF MS and product ion scans, respectively, and a collision energy spread of 20 was used in the MS/MS analysis. Information-dependent acquisition (IDA), together with real-time multiple mass defect filter, was used to trigger acquisition of MS/MS spectra.
(In general: Microsomes from liver hold many membrane-bound enzymes, among them those of drug oxidation.)

The nature of data set [5]: Metabolite identification by UPLC/Triple TOF MS in human liver microsomes. The note with it: Compound-3 10 μM, 1 mg/mL microsomes, NADPH, 60 min, HRMS. The data set is classed as in vitro ADME. More on the design: key: √: metabolites were detected by high-resolution mass spectrometry. As for the experimental part: as §2, §3, §4

As for `CCCCCCCCCCCCCCCCCCOCCOP(=O)(O)OCC1OC(n2ccc(N)nc2=O)C(F)(F)C1O` (stereo not drawn) [Compound-3], the Ki on CYP4F2 is 1.2 nM. In addition, the “metabolism of Compound-3 by CYP isozyme” value in data set [1] is “did not participate”. Besides, the “disappearance in 60 min” value in data set [2] is recorded as ~ 10%; in data set [3], ~ 20%. Further, the “detected in matrix RLM” value in data set [4] is “√”. In data set [5], the “detected in matrix HLM” value was “√”.
